Experimental data as given in patent US20250302823A1, “COMPOSITIONS AND METHODS FOR TREATING HEPATIC […] GLYCINE TRANSPORT INHIBITORS” (Disc Medicine, Inc., priority 2022, published 2025).

Legend:
[1] = system: ALAS1 and GlyT1 mRNA in HepG2 cells; experiment: qPCR expression of ALAS1 and GlyT1 in HepG2 cells after phenobarbital
GlyT1 = target: T1, GlyT1 (Homo sapiens, UniProt P48067); experiment: 3H-glycine uptake in HepG2 cells overexpressing GlyT1; type: cell-based
T1 construct: expressed in transfected cells; host or cells: HepG2, lentiviral infection (pLenti6.3-GlyT1)
T1 sequence (P48067 1-706): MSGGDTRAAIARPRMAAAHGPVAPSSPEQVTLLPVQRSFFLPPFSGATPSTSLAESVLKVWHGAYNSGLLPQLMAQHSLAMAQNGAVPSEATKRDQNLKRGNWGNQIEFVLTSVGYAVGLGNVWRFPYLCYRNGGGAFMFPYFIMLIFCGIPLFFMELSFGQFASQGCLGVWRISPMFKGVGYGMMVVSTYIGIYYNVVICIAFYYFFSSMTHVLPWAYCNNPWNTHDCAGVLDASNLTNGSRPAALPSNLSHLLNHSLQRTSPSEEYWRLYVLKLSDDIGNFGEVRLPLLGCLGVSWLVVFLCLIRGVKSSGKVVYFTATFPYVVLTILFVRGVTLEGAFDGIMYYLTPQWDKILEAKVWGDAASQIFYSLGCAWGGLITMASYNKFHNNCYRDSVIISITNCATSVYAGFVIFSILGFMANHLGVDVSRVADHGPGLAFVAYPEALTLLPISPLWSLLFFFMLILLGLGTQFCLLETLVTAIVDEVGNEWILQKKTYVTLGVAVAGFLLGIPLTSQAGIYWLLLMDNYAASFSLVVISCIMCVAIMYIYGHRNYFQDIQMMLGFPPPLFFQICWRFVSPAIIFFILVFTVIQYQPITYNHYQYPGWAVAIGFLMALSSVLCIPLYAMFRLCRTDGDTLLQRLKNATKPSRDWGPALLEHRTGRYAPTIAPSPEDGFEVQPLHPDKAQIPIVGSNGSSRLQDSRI
Experimental: The hepatic originated cell line HepG2 cell was engineered via lentiviral infection to overexpress untagged GlyT1 (FIG. 4A) or HA-Flag-tagged GlyT1 (FIG. 4B). Overexpression of GlyT1 was used to mimic the phenobarbital induced AIP symptoms observed in HepG2 as described in Example 3. The HA-Flag tagged construct was used to confirm the overexpression of the GlyT1 protein by Western blot. Overexpression of the untagged construct was confirmed by qPCR. The cells were cultured in the presence of the GlyT1 inhibitor bitopertin at room temperature for 60 min and then incubated with 20 nM ^3H-labeled glycine in the presence of 25 μM unlabeled glycine for 60 min. The uptake of glycine was measured by detection of radioisotope levels.

[2] = system: HepG2 cells transduced with shHMBS, GlyT1, ALAS1; experiment: 5-ALA and PBG production in AIP cellular model (HepG2 with shHMBS, GlyT1, ALAS1); type: cell-based, human
Description: The hepatic origin cell line HepG2 was engineered to express shRNA against HMBS, a gene in the heme biosynthesis pathway whose loss-of-function mutations cause hepatic porphyria. The shRNA reduced HMBS mRNA by 50% and HMBS protein by 70%. Hepatic porphyria is a dormant disease activated by increased expression of ALAS1. To establish the cellular model that resembles the pathologic status of hepatic porphyria, the HepG2 cells with HMBS knockdown were also transduced by lentivirus to overexpress ALAS1 and GlyT1.
The normal plasma glycine concentration in human adults ranges from 0.12 to 0.55 mM. To confirm GlyT1 inhibitors such as bitopertin can decrease production of toxic metabolites at physiological condition, the modified HepG2 cells were treated with bitopertin in the presence of different concentrations of glycine (0.1-1 mM).

CCC1(c2ccccc2)C(=O)NC(=O)NC1=O [phenobarbital]
increase of mRNA of ALAS1 and GlyT1 ([1]; HepG2, 24 h after phenobarbital treatment): 3 fold
increase of mRNA of ALAS1 and GlyT1 ([1]; HepG2, 48 h after phenobarbital treatment): 6 fold

C[C@H](Oc1ccc(S(C)(=O)=O)cc1C(=O)N1CCN(c2ncc(C(F)(F)F)cc2F)CC1)C(F)(F)F [bitopertin]
IC50 (GlyT1; engineered HepG2 overexpressing untagged or HA-Flag-tagged GlyT1, 20 nM 3H-glycine + 25 μM unlabeled glycine, 60 min): 710 to 1540 nM
glycine uptake in the engineered HepG2 cells (GlyT1; in the presence of bitopertin): significantly reduced
toxic metabolite 5-ALA at different glycine concentrations ([2]; glycine 0.1-1 mM in medium, FIG. 6A): consistent reduction
toxic metabolite PBG at different glycine concentrations ([2]; glycine 0.1-1 mM in medium, FIG. 6B): consistent reduction
production of toxic metabolite 5-ALA ([2]; modified HepG2 cells, FIG. 5A): significantly decrease
production of toxic metabolite PBG ([2]; modified HepG2 cells, FIG. 5B): significantly decrease
